For 16 compounds, GI50 results are on record in patent US9580390B2, “Indazole compounds as kinase inhibitors and method of treating cancer with same” (University Health Network, priority 2011, dated 2017).

Common to all, as to assay type: cell-based
For test [1], the system named is colon cancer cells (HCT116). Put plainly: Cancer cell line growth inhibition (SRB assay). Particulars: Homo sapiens, HCT-116, read-out: Cancer Cell Line GI50 Range HCT116. A general note: The SRB assay estimates cell density from bound dye.
Test [2] has as its system ovarian cancer cells (PA-1). The experiment in a line: Cancer cell line growth inhibition (SRB assay). Particulars: read-out: Cancer Cell Line GI50 Range PA-1.
Test [3] relates to TICs (Colon 12). Put plainly: Colon tumor-initiating cell growth inhibition (Alamar Blue). Particulars: 216 h, 9 days, read-out: Tumor Initiating Cell GI50 Range Colon 12. Background: The colour change of resazurin is a common sign of viable cells or microbes.
For test [4], the system named is TICs (Ovarian 2393A). Put plainly: Ovarian tumor-initiating cell growth inhibition (Alamar Blue). The settings on record: 144 h, 6 days, read-out: Tumor Initiating Cell GI50 Range Ovarain 2393A.
Text: Materials and Methods: Non-tissue or tissue cultured treated T-75 flask and 96-well plates were purchased from VWR. Vitamin B-27 supplement, MEM NEAA (minimum essential medium non essential amino acids), sodium pyruvate, L-glutamine, N2 supplement, penicillin-streptomycin and fungizone/amphotericin B were obtained from Invitrogen. Lipid mixture, heparin and EGF were purchased from Sigma; bFGF from BD Biosciences. Tumor Initiating Cells (TICs) from colon were routinely maintained using non-tissue cultured treated T-75 flasks in DMEM:F12 medium containing 0.2×B-27 supplement, 4 ug/ml heparin, 1×MEM NEAA, 1× sodium pyruvate, 1 mM glutamine, 10 pg/ul bFGF, 20 pg/ul EGF, 1×N2 supplement, lipid mixture, penicillin-streptomycin and fungizone/amphotericin B. Ovarian TICs were routinely maintained using tissue cultured treated T-75 flasks in DMEM:F12 medium containing 1×B-27 supplement, 4 ug/ml heparin, 20 pg/ul bFGF, 20 pg/ul EGF and penicillin-streptomycin.
Assay Protocol: Compounds described herein were dissolved in DMSO and further diluted in cell culture medium for GI50 determination. Colon TICs were trypsinized and seeded into non-tissue cultured treated 96-well plates with 4,000 cells/well. After 24 h, compound was added into the cell culture at different concentrations, and the final concentration of DMSO was adjusted to 0.1%. Cells were then cultured at 37° C. for 9 days. Ovarian TICs were trypsinized and seeded into tissue cultured treated 96-well plates with 1,000 cells/well. After 24 h, compound was added into the cell culture at different concentrations, and the final concentration of DMSO was adjusted to 0.1%. Cells were then cultured at 37° C. for 6 days. Cell viability was assessed by Alamar Blue assay: 10 ul of Alamar Blue was added into each well. After 4 hours incubation at 37° C., fluorescence was recorded at excitation 544 and emission 590. GI50 (Growth inhibition) was calculated using GraphPad Prism 4.0 software.
Setting [5] is: HCT116 colon cancer cells, SRB assay.
Setting [6] is: PA-1 ovarian cancer cells, SRB assay.

Read-outs that look alike come from different tables or passages of the source.

By GI50 is commonly meant the concentration at which growth is held to half of that of the control. With `O=C(NC(c1ccccn1)C1CC1)c1ccc2[nH]nc(-c3ccc(OC4CCN(C5COC5)CC4)cc3)c2c1` (stereo not shown) [Example A171, N-(cyclopropyl(pyridin-2-yl)methyl)-3-(4-((1-(oxetan-3-yl)piperidin-4-yl)oxy)phenyl)-1H-indazole-5-carboxamide], the GI50 in test [1] (setting [5]) was under 100 nM; in test [2] (setting [6]), under 100 nM; in test [3] (colon TICs, Alamar Blue), 100 to 500 nM; in test [4] (ovarian TICs, Alamar Blue) it was under 100 nM.
As to `O=C(Nc1ccc2[nH]nc(-c3ccc(OC4CN(C5COC5)C4)cc3)c2c1)C(c1ccsc1)N1CCCC1` (stereo not shown) [Example A189, N-(3-(4-((1-(oxetan-3-yl)azetidin-3-yl)oxy)phenyl)-1H-indazol-5-yl)-2-(pyrrolidin-1-yl)-2-(thiophen-3-yl)acetamide], the GI50 in test [1] (setting [5]) was under 100 nM; in test [2] (setting [6]), under 100 nM; in test [3] (colon TICs, Alamar Blue) it was over 500 nM; in test [4] (ovarian TICs, Alamar Blue) it was over 500 nM.
Take `CN1CCC(Oc2ccc(-c3n[nH]c4ccc(NC(=O)C(OC5CCCC5)c5ccccc5)cc34)cc2)CC1` (stereo not shown) [Example A183, 2-(cyclopentyloxy)-N-(3-(4-((1-methylpiperidin-4-yl)oxy)phenyl)-1H-indazol-5-yl)-2-phenylacetamide]: the concentration for 50% growth inhibition (GI50) in test [1] (setting [5]) is 100 to 500 nM; in test [2] (setting [6]) it was 100 to 500 nM; in test [3] (colon TICs, Alamar Blue), over 500 nM; in test [4] (ovarian TICs, Alamar Blue) it was over 500 nM.
As to `COc1ccccc1C(NC(=O)c1ccc2[nH]nc(-c3ccc(OC4CCN(C)CC4)cc3)c2c1)C1CC1` (stereo not shown) [Example A151, N-(cyclopropyl(2-methoxyphenyl)methyl)-3-(4-((1-methylpiperidin-4-yl)oxy)phenyl)-1H-indazole-5-carboxamide], the concentration for 50% growth inhibition (GI50) in test [1] (setting [5]) was under 100 nM; in test [2] (setting [6]) it was 100 to 500 nM; in test [3] (colon TICs, Alamar Blue), 100 to 500 nM; in test [4] (ovarian TICs, Alamar Blue), 100 to 500 nM.
Turning to `O=C(N[C@H](c1ncccc1Cl)C1CC1)c1ccc2[nH]nc(-c3ccc(OC4CCN(C5COC5)CC4)cc3)c2c1` [Example A216, (S)-N-((3-chloropyridin-2-yl)(cyclopropyl)methyl)-3-(4-((1-(oxetan-3-yl)piperidin-4-yl)oxy)phenyl)-1H-indazole-5-carboxamide], the GI50 in test [1] was under 100 nM; in test [2] (Homo sapiens, PA-1), under 100 nM; in test [3] (Colon 12 TICs), under 100 nM; in test [4] (Ovarian 2393A TICs), under 100 nM.
Regarding `C[C@@H](NC(=O)c1ccc2[nH]nc(-c3ccc(OC4CCN(C)CC4)cc3)c2c1)c1ccccc1F` [Example A134, (R)-N-(1-(2-fluorophenyl)ethyl)-3-(4-((1-methylpiperidin-4-yl)oxy)phenyl)-1H-indazole-5-carboxamide], the GI50 was under 100 nM in test [1] (setting [5]); 100 to 500 nM in test [2] (setting [6]); 100 to 500 nM in test [3] (colon TICs, Alamar Blue); over 500 nM in test [4] (ovarian TICs, Alamar Blue).
Regarding `Cc1ccccc1C(NC(=O)c1ccc2[nH]nc(-c3ccc(OC4CCN(C)CC4)cc3)c2c1)C1CC1` (stereo not shown) [Example A132, N-(cyclopropyl(o-tolyl)methyl)-3-(4-((1-methylpiperidin-4-yl)oxy)phenyl)-1H-indazole-5-carboxamide], the 50% growth inhibitory concentration (GI50) in test [1] (setting [5]) was under 100 nM; in test [2] (setting [6]) it was under 100 nM; in test [3] (colon TICs, Alamar Blue) it was under 100 nM; in test [4] (ovarian TICs, Alamar Blue), 100 to 500 nM.
`O=C(NC(c1ccccc1)C1CC1)c1ccc2[nH]nc(-c3ccc(OC4CN(C5COC5)C4)cc3)c2c1` (stereo not shown) [Example A190, N-(cyclopropyl(phenyl)methyl)-3-(4-((1-(oxetan-3-yl)azetidin-3-yl)oxy)phenyl)-1H-indazole-5-carboxamide]: the concentration for 50% growth inhibition (GI50) is 100 to 500 nM in test [1] (setting [5]); 100 to 500 nM in test [2] (setting [6]); 100 to 500 nM in test [3] (colon TICs, Alamar Blue); 100 to 500 nM in test [4] (ovarian TICs, Alamar Blue).
As for `CC1(O)CCN(c2ccc(-c3n[nH]c4ccc(NC(=O)C(c5ccsc5)N5CCCC5)cc34)cc2)CC1` (stereo not shown) [Example A89, N-(3-(4-(4-hydroxy-4-methylpiperidin-1-yl)phenyl)-1H-indazol-5-yl)-2-(pyrrolidin-1-yl)-2-(thiophen-3-yl)acetamide], the 50% growth inhibitory concentration (GI50) was under 100 nM in test [1] (setting [5]); under 100 nM in test [2] (setting [6]); 100 to 500 nM in test [3] (colon TICs, Alamar Blue); 100 to 500 nM in test [4] (ovarian TICs, Alamar Blue).
For the compound `COC[C@@H](NC(=O)c1ccc2[nH]nc(-c3ccc(OC4CCN(C)CC4)cc3)c2c1)c1ccccc1` [Example A173, (S)-N-(2-methoxy-1-phenylethyl)-3-(4-((1-methylpiperidin-4-yl)oxy)phenyl)-5-carboxamide], the GI50 is 100 to 500 nM in test [1] (setting [5]); 100 to 500 nM in test [2] (setting [6]); over 500 nM in test [3] (colon TICs, Alamar Blue); 100 to 500 nM in test [4] (ovarian TICs, Alamar Blue).
In the case of `O=C(Nc1ccc2[nH]nc(-c3ccc(OC4CCN(C5COC5)CC4)cc3)c2c1)C(c1ccccc1)C1CC1` (stereo not shown) [Example A185, 2-cyclopropyl-N-(3-(4-((1-(oxetan-3-yl)piperidin-4-yl)oxy)phenyl)-1H-indazol-5-yl)-2-phenylacetamide], the 50% growth inhibitory concentration (GI50) in test [1] (setting [5]) was 100 to 500 nM; in test [2] (setting [6]), 100 to 500 nM; in test [3] (colon TICs, Alamar Blue), 100 to 500 nM; in test [4] (ovarian TICs, Alamar Blue), 100 to 500 nM.
Consider `CC(C)C(NC(=O)c1ccc2[nH]nc(-c3ccc(OC4CCN(C)CC4)cc3)c2c1)c1ccccc1Cl` (stereo not shown) [Example A144, N-(1-(2-chlorophenyl)-2-methylpropyl)-3-(4-((1-methylpiperidin-4-yl)oxy)phenyl)-1H-indazole-5-carboxamide], for which the concentration for 50% growth inhibition (GI50) in test [1] (setting [5]) is under 100 nM; in test [2] (setting [6]), under 100 nM; in test [3] (colon TICs, Alamar Blue), under 100 nM; in test [4] (ovarian TICs, Alamar Blue) it was under 100 nM.
For `CC[C@@H](NC(=O)c1ccc2[nH]nc(-c3ccc(OC4CCN(C)CC4)cc3)c2c1)c1cccc(OC)c1` [Example A174, (R)-N-(1-(3-methoxyphenyl)propyl)-3-(4-((1-methylpiperidin-4-yl)oxy)phenyl)-1H-indazole-5-carboxamide], the 50% growth inhibitory concentration (GI50) in test [1] (setting [5]) was under 100 nM; in test [2] (setting [6]), 100 to 500 nM; in test [3] (colon TICs, Alamar Blue) it was 100 to 500 nM; in test [4] (ovarian TICs, Alamar Blue) it was 100 to 500 nM.
As to `CN1[C@@H]2CC[C@H]1C[C@@H](Oc1ccc(-c3n[nH]c4ccc(C(=O)NC(c5ccccc5)C5CC5)cc34)cc1)C2` (stereo partly shown) [Example A178], the GI50 in test [1] (setting [5]) is under 100 nM; in test [2] (setting [6]), under 100 nM; in test [3] (colon TICs, Alamar Blue), 100 to 500 nM; in test [4] (ovarian TICs, Alamar Blue) it was 100 to 500 nM.
Turning to `O=CN1CCC(Oc2ccc(-c3n[nH]c4ccc(C(=O)N[C@H](c5ncccc5Cl)C5CC5)cc34)cc2)CC1` [Example A212, (S)-N-((3-chloropyridin-2-yl)(cyclopropyl)methyl)-3-(4-((1-formylpiperidin-4-yl)oxy)phenyl)-1H-indazole-5-carboxamide], the GI50 in test [1] is under 100 nM; in test [2] (Homo sapiens, PA-1), under 100 nM; in test [3] (Colon 12 TICs) it was 100 to 500 nM; in test [4] (Ovarian 2393A TICs), under 100 nM.
With `CN1CCC(Oc2ccc(-c3n[nH]c4ccc(NC(=O)C(c5cccs5)N5CCCC5)cc34)cc2)CC1` (stereo not shown) [Example A91, N-(3-(4-((1-methylpiperidin-4-yl)oxy)phenyl)-1H-indazol-5-yl)-2-(pyrrolidin-1-yl)-2-(thiophen-2-yl)acetamide], the concentration for 50% growth inhibition (GI50) is under 100 nM in test [1] (setting [5]); under 100 nM in test [2] (setting [6]); 100 to 500 nM in test [3] (colon TICs, Alamar Blue); under 100 nM in test [4] (ovarian TICs, Alamar Blue).
